Molecular target: T1, Rac2 (Mus musculus, UniProt Q05144)
T1 construct: reduced the expression of immune cell-specific Rac2 in the FBR capsules by about 80%; from tissue; host or cells: FBR capsule tissue around mechanically stimulating implants in C57/BL6 wild-type mice (Jackson labs Stock No: 000664)
Test: Rac inhibition in the mechanically stimulating implant (MSI) mouse model of foreign body response
Format: in vivo
Details: C57/BL6 wildtype mice
Source text: Implantation Experiments. Standard silicone implants and MS's were implanted in C57/BL6 mice for either 2 weeks or 1 month. A 2 cm incision was made on the dorsum of the mouse and a subcutaneous pocket was created. Control implants were placed in the subcutaneous pocket and the incision was closed using 6-0 nylon suture or staples. For vibration-enabled implants, the implants were placed into a subcutaneous pocket, similar to the procedure described above and wires were guided through the skin using a modified seldinger technique. 3V batteries with an amplitude of 1.38 G and a frequency of 203 Hz were used to mimic human conditions. MS's were vibrated for 1 hour daily from day 4 (D4) post implantation to day 11 (D11). This time period was chosen based on previous studies, showing that increased mechanical stress during this period effectively induces fibrosis.
Histology and Trichrome staining. At each timepoint, the mice were euthanized, and the implants were resected en bloc with the surrounding scar tissue. The implants were removed and the scar tissue along with the skin was fixed in 4% paraformaldehyde overnight and embedded in paraffin. Scar tissue and implants from humans were collected from patients and processed within an hour. For analysis of the capsule, paraffin sections were stained with trichrome (SigmaAldrich) as described previously. Imaging was performed on a Leica DM5000 B upright microscope. Image analysis software (Image J) was used to quantify collagen staining.
Immunostaining. Immunohistological staining was performed on paraffin sections as described previously. Briefly, heat-based antigen retrieval was followed by blocking with 5% goat serum in PBS. The following primary antibodies were used at a 1:200 dilution (as recommended by the manufacturer) and incubated overnight at 4° C.: anti-a-SMA (Abcam ab5694) or anti-Rac2 (Fischer Scientific, DF6273). Incubation of primary antibody-stained specimens with Alexa Fluor 488 secondary antibody (Thermo Fisher Scientific) was performed at a 1:400 dilution for 1 hour at room temperature. Sections were subsequently mounted using Fluoroshield (F6057, Sigma, Saint Louis, MO) with 4′, 6-diamidino-2-phenylindole (DAPI) to stain cell nuclei. Imaging was performed on a Leica DM5000 B upright microscope. Image analysis was performed using Matlab.
Rac Inhibition Experiments. EHT 1864 2HCl, a potent Rac family GTPase inhibitor, was acquired from Selleckchem (Houston, TX). MS's were implanted in C57/BL6 wildtype mice for 28 days utilizing the modified Seldinger technique described above. Mice were injected with EHT 1864 2HCl (10 mg/kg/day) (n=4) or saline (n=4) from Days 0-26. FBR capsule tissue was explanted on day 28 and processed for histologic analysis.
Statistical Analyses. Results are presented as mean±SEM. Standard data analysis was performed using student's ttests. ANOVA with posthoc tukey's test was used for multiple comparisons. Results were considered significant for *p<0.05.

[1] = 10 mg/kg/day Days 0-26 vs saline, day 28
[2] = local injection 10 mg/kg/day Days 0-26 vs saline, capsule explanted day 28

Cl.Cl.O=c1cc(CN2CCOCC2)occ1OCCCCCSc1ccnc2cc(C(F)(F)F)ccc12 [EHT 1864 2HCl]
capsule thickness (H&E staining) [1]: decreased | collagen deposition (trichrome staining) [1]: decreased | overall FBR [1]: significantly reduced | reduction in the activation of myofibroblasts in MSI capsules (aSMA immunostaining) [2]: about 90% | reduction of expression of immune cell-specific Rac2 in the FBR capsules (immunostaining, percent area positive) [2]: about 80%

— patent US20230381378A1, “METHODS AND COMPOSITIONS FOR THE TREATMENT OF IMPLANT ASSOCIATED COMPLICATIONS” (The Board of Trustees of the Leland Stanford Junior …, priority 2020, published 2023)
